According to US4223039A, “Therapeutically useful N-phenylaniline derivatives” (priority 1978, dated 1980):

Assays:
[1] = Acute toxicity in mice after oral administration; conditions: mouse, in vivo, suspended in 10% gum arabic, survivors checked at 15 days
Experimental: The compounds have been administered at increasing doses (in geometric progression) to groups of five .female. SWISS, EOPS, NMRI/Han mice originating from the breeding of EVIC CEBA and of mean weight 25 g.
For oral administration, they are suspended in a 10% gum arabic solution.
The LD 50s are calculated by the method of Behrens (B) and Karber (C), (Arch. Exp. Path. Pharmakol. 1935, 177, 379-388).
The number of animals surviving in the different groups is finally checked 15 days after administration of the compounds.

[2] = tested on: painful syndrome provoked in mice by phenylbenzoquinone; test: animal or person; format: in vivo; conditions: for Therapeutic Index LD 50/ED 50 / therapeutic index (in words): mice; for Therapeutic Index LD 50/ED 50: LD 50 (oral)/ED 50 (phenylbenzoquinone test); for therapeutic index (in words): LD 50/ED 50
Experimental: There is used the phenylbenzoquinone test according to a technique adapted from that of Siegmund (E), Proc. Soc. Exp. Biol. Med. 1957, 95, No. 4, 729-731.
It is attempted to antagonise, by previous administration (30 minutes before) of the test compounds, the painful syndrome provoked in mice (groups of 10 animals) by interperitoneal injection of phenylbenzoquinone and characterised by intermittent contractions of the abdomen, periodic torsions of the trunk and extension of the rear paws. The number of symtoms is counted for 20 minutes after administration of the phenylbenzoquinone to the control and treated groups and the percentage protection relative to the control group calculated.
For the most interesting compounds, studied at several doses chosen in geometric progression of ratio 2, the effective doses 50% (ED 50) which reduce by 50% the effects provoked by phenylbenzoquinone are determined. These ED 50s are sorted according to their limits of confidence calculated for a probability p=0.05 according to the method of Litchfield (J. T.) and Wilcoxon (F. A.), J. Pharmacol. Exp. Ther. 1949, 96, 99-113.
Calculation of the therapeutic index (LD 50/ED 50) enables appreciation of the interest of the compounds.

[3] = Mus musculus, read-out: Percentage Protection

Row | SMILES | LD50 at 360 h [1] [mg/kg] | ED50 ([2]; Mus musculus) [mg/kg] | inhibition in vivo at 20 mg/kg [2, 3] [%] | inhibition in vivo at 40 mg/kg [2, 3] [%] | inhibition in vivo at 80 mg/kg [2, 3] [%] | inhibition in vivo at 160 mg/kg [2, 3] [%] | inhibition in vivo at 320 mg/kg [2, 3] [%] | Therapeutic Index LD 50/ED 50 [2] | also measured
1 | CC(Nc1cccc(C(=O)c2cccs2)c1)C(=O)O (stereo not shown) [LJ 859] | 2500 | – | – | – | – | – | – | – | inhibition in vivo at 125 mg/kg [2, 3]: 77%
2 | Cc1c(NCC(=O)O)cccc1C(=O)c1ccccc1 [LJ 861] | 1300 | 65 | 24 | 36 | 52 | 90 | 96 | 20 | –
3 | CN(CC(=O)O)c1cccc(C(=O)c2ccccc2)c1 [LJ 862, N-(3-Benzoylphenyl)-N-methyl-glycine] | – | 85 | 6 | 24 | 49 | 78 | 89 | – | –
4 | C[C@@H](C(=O)O)N(C(=O)c1ccc(Cl)cc1)c1cccc(C(=O)c2ccccc2)c1 [LJ 863, N-(3-Benzoylphenyl)-N-(4-chlorobenzoyl)-alanine] | – | – | – | – | – | – | 45 | – | –
5 | O=C(c1ccccc1)c1cccc(NC(C(=O)O)c2ccccc2)c1 (stereo not shown) [LJ 864] | – | – | – | 7 | 22 | 31 | 59 | – | –
6 | Cc1ccc(C(=O)c2cccc(NC(C)C(=O)O)c2)cc1 (stereo not shown) [LJ 867] | 2620 | 32 | – | – | – | – | – | 82 | inhibition in vivo at 8.2 mg/kg [2, 3]: 6%; inhibition in vivo at 16.4 mg/kg [2, 3]: 32%; inhibition in vivo at 32.75 mg/kg [2, 3]: 52%; inhibition in vivo at 65.5 mg/kg [2, 3]: 70%; inhibition in vivo at 131 mg/kg [2, 3]: 92%; inhibition in vivo at 262 mg/kg [2, 3]: 97%; therapeutic index (in words) [2]: very favourable therapeutic index
7 | CC(Nc1ccc(Cl)c(C(=O)c2ccccc2)c1)C(=O)O (stereo not shown) [LJ 868] | 1800 | > 180 | – | – | – | – | – | < 10 | inhibition in vivo at 180 mg/kg [2, 3]: 32%
8 | Cc1ccc(C(=O)c2ccccc2)cc1NC(C)C(=O)O (stereo not shown) [LJ 869] | 1300 | 28 | – | – | – | – | – | 46 | inhibition in vivo at 8.1 mg/kg [2, 3]: 12%; inhibition in vivo at 16.25 mg/kg [2, 3]: 36%; inhibition in vivo at 32.5 mg/kg [2, 3]: 51%; inhibition in vivo at 65 mg/kg [2, 3]: 82%; inhibition in vivo at 130 mg/kg [2, 3]: 96%
9 | Cc1ccc(C(=O)c2ccccc2)cc1NCC(=O)O [LJ 871] | – | 120 | 3 | 22 | 34 | 59 | 60 | – | –
10 | C[C@H](Nc1cccc(C(=O)c2ccccc2)c1)C(=O)O [LJ 874, N-(3-Benzoylphenyl)-alanine] | 2500 | 35 | – | – | – | – | – | 71 | inhibition in vivo at 7.5 mg/kg [2, 3]: 3%; inhibition in vivo at 15 mg/kg [2, 3]: 20%; inhibition in vivo at 30 mg/kg [2, 3]: 48%; inhibition in vivo at 60 mg/kg [2, 3]: 61%; inhibition in vivo at 120 mg/kg [2, 3]: 92%; therapeutic index (in words) [2]: very favourable therapeutic index
